# Test results published in paper PMC9161374 (Science Translational Medicine, 2022).
# Several values for one entry are separate records, joined by “and”; a condition that tells them apart may be missing. Equal values may be shown once.
# Legend:
# [1] = test system: SARS-CoV-2 replicon system (pBAC-SARS-CoV-2-Replicon-Luc); assay: microbe, parasite or virus in culture; type: cell-based; conditions: for EC50 / EC90: Severe acute respiratory syndrome coronavirus 2, HEK-293T, 60 h; for EC50: read-out: EC50 (Confidence 95%), replicon; for EC90: read-out: EC90 (Confidence 95%), replicon
# Vero E6 cells = assay: CCK-8 cell viability assay; type: cell-based, African green monkey; conditions: individual replicate values, Fig.S4
# Protocol: To investigate the effect of drugs on cell viability, Vero E6 cells were seeded in 96-well plates at a density of 20,000 cells per well and were treated with drugs at indicated concentrations (0, 0.01, 0.1, 1, 5, 10, 50, 75, 100, 200 μM) for 48 hours. Cell viability was tested by using Cell Counting Kit-8 (CCK-8, Bimake, B34302). The figures were plotted from cell viability percentage versus the drug concentrations using GraphPad Prism 6 software.
# Fig. S4. Cytotoxicity assay of compounds in Vero E6 cells.
# Vero E6 cells were plated in 96-well plates and treated with increasing concentrations
# of each indicated compound, ranging from 0 to 200 μM, for 48 hours. Cell viability was
# tested using Cell Counting Kit-8 (CCK-8). Data are presented as mean ± SD.
# [2] = Permeability and efflux ratio in Caco-2 cells; type: in vitro ADME; conditions: human; for Papp A→B: AB; for Papp B→A: BA
# Source text: ATV019, and ATV020 in Caco-2 cells.
# Compound Caco-2 AB/BA (Papp (10-6 cm/s)) a Efflux ratio
structure (smiles),measurement,setting,value
CC(C)C(=O)Nc1ncnn2c([C@]3(C#N)O[C@H](COC(=O)C(C)C)[C@@H](OC(=O)C(C)C)[C@H]3OC(=O)C(C)C)ccc12 [ATV001],activity in the replicon system in comparison with parent GS-441524,[1],decreased antiviral activities
CC(=O)Nc1ncnn2c([C@]3(C#N)O[C@H](COC(C)=O)[C@@H](OC(C)=O)[C@H]3OC(C)=O)ccc12 [ATV002],activity in the replicon system in comparison with parent GS-441524,[1],decreased antiviral activities
CC(=O)OC[C@H]1O[C@@](C#N)(c2ccc3c(N)ncnn23)[C@H](OC(C)=O)[C@@H]1OC(C)=O [ATV003],activity in the replicon system in comparison with parent GS-441524,[1],did not substantially change the activity
same,EC50,[1],829 nM
same,EC90,[1],2320 nM
CC(C)C(=O)OC[C@H]1O[C@@](C#N)(c2ccc3c(N)ncnn23)[C@H](OC(=O)C(C)C)[C@@H]1OC(=O)C(C)C [ATV004],activity in the replicon system in comparison with parent GS-441524,[1],improved the inhibitory activities
same,EC50,[1],675 nM
same,EC90,[1],2070 nM
CC(=O)OC[C@H]1O[C@@](C#N)(c2ccc3c(N)ncnn23)[C@H](O)[C@@H]1O [ATV007],EC50,[1],1960 nM
same,EC90,[1],3730 nM
CCC(=O)OC[C@H]1O[C@@](C#N)(c2ccc3c(N)ncnn23)[C@H](O)[C@@H]1O [ATV008],EC50,[1],815 nM
same,EC90,[1],3140 nM
CCCC(=O)OC[C@H]1O[C@@](C#N)(c2ccc3c(N)ncnn23)[C@H](O)[C@@H]1O [ATV0009],cell viability (% of control),"Vero E6 cells; 0.01 μM compound, 0.01 µM",109.752 % of control and 112.521 % of control and 116.766 % of control
same,cell viability (% of control),"Vero E6 cells; 0.1 μM compound, 0.1 µM",123.319 % of control and 106.337 % of control and 117.182 % of control
same,cell viability (% of control),"Vero E6 cells; 1 μM compound, 1 µM",116.074 % of control and 120.089 % of control and 107.814 % of control
same,cell viability (% of control),"Vero E6 cells; 2 μM compound, 2 µM",114.09 % of control and 114.182 % of control and 114.044 % of control
same,cell viability (% of control),"Vero E6 cells; 5 μM compound, 5 µM",120.412 % of control and 124.38 % of control and 128.395 % of control
same,cell viability (% of control),"Vero E6 cells; 10 μM compound, 10 µM",124.625 % of control and 120.839 % of control and 120.84 % of control
same,cell viability (% of control),"Vero E6 cells; 50 μM compound, 50 µM",90.5983 % of control and 85.7996 % of control and 95.8178 % of control
N#C[C@@]1(c2ccc3c(N)ncnn23)O[C@H](COC(=O)C2CC2)[C@@H](O)[C@H]1O [ATV012],EC50,[1],2170 nM
same,EC90,[1],3510 nM
N#C[C@@]1(c2ccc3c(N)ncnn23)O[C@H](COC(=O)C2CCCC2)[C@@H](O)[C@H]1O [ATV015],EC50,[1],713 nM
same,EC90,[1],962 nM
N#C[C@@]1(c2ccc3c(N)ncnn23)O[C@H](COC(=O)CC(F)(F)F)[C@@H](O)[C@H]1O [ATV016],EC50,[1],830 nM
same,EC90,[1],1230 nM
CC(C)[C@@H](N)C(=O)OC[C@H]1O[C@@](C#N)(c2ccc3c(N)ncnn23)[C@H](O)[C@@H]1O [ATV019],EC50,[1],974 nM
same,EC90,[1],3810 nM
same,efflux ratio,[2],2.47
same,Papp A→B,[2],0.28 ×10⁻⁶ cm/s
same,Papp B→A,[2],0.68 ×10⁻⁶ cm/s
CC(C)[C@H](N)C(=O)OC[C@H]1O[C@@](C#N)(c2ccc3c(N)ncnn23)[C@H](O)[C@@H]1O [ATV020],EC50,[1],2350 nM
same,EC90,[1],13400 nM
same,efflux ratio,[2],1.28
same,Papp A→B,[2],0.17 ×10⁻⁶ cm/s
same,Papp B→A,[2],0.22 ×10⁻⁶ cm/s
CCC(C)[C@H](N)C(=O)OC[C@H]1O[C@@](C#N)(c2ccc3c(N)ncnn23)[C@H](O)[C@@H]1O (stereo partly shown) [ATV023],EC50,[1],950 nM
same,EC90,[1],2010 nM
CCC(C)[C@@H](N)C(=O)OC[C@H]1O[C@@](C#N)(c2ccc3c(N)ncnn23)[C@H](O)[C@@H]1O (stereo partly shown) [ATV024],EC50,[1],864 nM
same,EC90,[1],1470 nM
CCC(CC)COC(=O)[C@H](C)N[P@](=O)(OC[C@H]1O[C@@](C#N)(c2ccc3c(N)ncnn23)[C@H](O)[C@@H]1O)Oc1ccccc1 [RDV],cell viability (% of control),"Vero E6 cells; 0.1 μM compound, 0.1 µM",100.353 % of control and 102.354 % of control and 103.353 % of control
same,cell viability (% of control),"Vero E6 cells; 1 μM compound, 1 µM",99.5206 % of control and 102.566 % of control and 112.154 % of control
same,cell viability (% of control),"Vero E6 cells; 2 μM compound, 2 µM",97.4544 % of control and 95.2342 % of control and 99.3423 % of control
same,cell viability (% of control),"Vero E6 cells; 5 μM compound, 5 µM",91.6526 % of control and 95.3187 % of control and 100 % of control
same,cell viability (% of control),"Vero E6 cells; 10 μM compound, 10 µM",93.1472 % of control and 90.0169 % of control and 88.1839 % of control
same,cell viability (% of control),"Vero E6 cells; 20 μM compound, 20 µM",90.3424 % of control and 95.3423 % of control and 99.3423 % of control
same,cell viability (% of control),"Vero E6 cells; 50 μM compound, 50 µM",80.3835 % of control and 84.2922 % of control and 85.9278 % of control
